One may read the EC50 as the midpoint of the concentration-response curve.

The values below come from US7786141B2 (Vertex Pharmaceuticals Incorporated, priority 2004, dated 2010).

The target of experiment [1] is T1, M1 muscarinic receptor (Homo sapiens, UniProt P11229).
T1 construct: expressed in transfected cells; host or cells: CHO (M1-CHO)
T1 sequence (P11229 1-460): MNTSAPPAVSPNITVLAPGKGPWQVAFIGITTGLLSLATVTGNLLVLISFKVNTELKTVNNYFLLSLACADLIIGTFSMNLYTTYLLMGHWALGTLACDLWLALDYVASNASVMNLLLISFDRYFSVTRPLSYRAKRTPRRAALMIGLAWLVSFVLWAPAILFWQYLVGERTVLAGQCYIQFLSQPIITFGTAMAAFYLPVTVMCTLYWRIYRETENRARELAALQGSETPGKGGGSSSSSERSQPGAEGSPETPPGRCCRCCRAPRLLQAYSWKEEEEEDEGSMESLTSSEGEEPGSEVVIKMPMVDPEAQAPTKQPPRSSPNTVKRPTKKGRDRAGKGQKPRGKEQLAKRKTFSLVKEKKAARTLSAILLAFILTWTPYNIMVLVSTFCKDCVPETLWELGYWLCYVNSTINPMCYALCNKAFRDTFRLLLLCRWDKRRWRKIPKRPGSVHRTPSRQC
Put plainly: Functional mobilization of intracellular calcium (FLIPR) in M1-CHO cells. Particulars: M1-CHO cells, calcium mobilization (FLIPR); for Emax: read-out: M1 Efficacy. The experiment is classed as cell-based. The essentials: (§1)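 Measured via Fluo-3 fluorescence on a FLIPR, CHO cells with either muscarinic subtype received compound in 0.5% DMSO. Antagonism was assessed after 15 min pre-incubation followed by carbachol at each subtype's EC80; agonism from compound addition alone.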
(In general: Calcium flux is commonly read through the fluorescence of an indicator in the cells.)

Experiment [2] has as its target T2, M4 muscarinic receptor (Homo sapiens, UniProt P08173).
T2 construct: expressed in transfected cells; host or cells: CHO (M4-CHO)
T2 sequence (P08173 1-479): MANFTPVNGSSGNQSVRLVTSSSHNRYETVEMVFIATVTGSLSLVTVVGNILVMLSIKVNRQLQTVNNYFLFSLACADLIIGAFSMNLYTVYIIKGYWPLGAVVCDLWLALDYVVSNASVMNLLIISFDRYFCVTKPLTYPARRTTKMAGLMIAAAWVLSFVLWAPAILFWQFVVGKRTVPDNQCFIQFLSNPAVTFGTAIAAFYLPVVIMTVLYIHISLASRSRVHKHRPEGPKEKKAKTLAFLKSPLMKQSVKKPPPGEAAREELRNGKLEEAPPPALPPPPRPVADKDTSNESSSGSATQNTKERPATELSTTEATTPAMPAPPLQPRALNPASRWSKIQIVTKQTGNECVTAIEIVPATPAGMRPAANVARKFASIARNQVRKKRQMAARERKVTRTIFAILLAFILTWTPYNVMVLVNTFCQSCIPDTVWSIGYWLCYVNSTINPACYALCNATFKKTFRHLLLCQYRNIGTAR
Put plainly: Functional mobilization of intracellular calcium (FLIPR) in M4-CHO cells. It counts as cell-based. Particulars: M4-CHO cells, calcium mobilization (FLIPR); for Emax: read-out: M4 Efficacy. The essentials:
as §1

As for `Cc1ccc2c(c1)C1(CCN(C3CC4CCC(C4)C3)CC1)CN2` (stereo not shown) [compound 397], in experiment [1], the EC50 fell in the range of 0.1 to 1 µM and the Emax lay in the range of 65 to 85%. For the same molecule, in experiment [2], the 50% effective concentration (EC50) was above 1 µM and the Emax was below 65%.

`CC(=O)N1CC2(CCN(C3CCN(C(=O)O[C@H]4CCOC4)CC3)CC2)c2cc(C)ccc21` [compound 398]: in experiment [1], the EC50 is 0.1 to 1 µM and the Emax was below 65%. Also, in experiment [2], the EC50 is above 1 µM and the Emax is below 65%.

With `CC(=O)N[C@H]1CC2(CCN(CC3CCN(C(=O)OC(C)C)CC3)CC2)c2ccccc21` [compound 399], the concentration for a half-maximal effect (EC50) in experiment [1] and in experiment [2] was 0.1 to 1 µM throughout. For the same molecule, the Emax in experiment [1] was 65 to 85%; in experiment [2], below 65%.

Turning to `CCNC(=O)N1CC2(CCN(C3CC4CCC3C4)CC2)c2cc(C)ccc21` (stereo not shown) [compound 400], the EC50 in experiment [1] and in experiment [2] was above 1 µM throughout. The Emax in experiment [1] and in experiment [2] was below 65% each time.

On to `CCOC(=O)N1CCC(N2CCC3(CC2)CN(C(=O)c2ccc4c(c2)OCO4)c2ccc(F)cc23)CC1` [compound 401], for which the EC50 in experiment [1] is below 0.1 µM; in experiment [2] it was above 1 µM. Besides, the Emax in experiment [1] was 65 to 85%; in experiment [2], below 65%.

For `CC(C)OC(=O)N1C2CCC1CC(N1CCC3(CC1)CN(C(=O)O[C@@H]1CCOC1)c1ccc(F)cc13)C2` (stereo partly shown) [compound 402], in experiment [1], the EC50 lay in the range of 0.1 to 1 µM and the Emax lay within 65 to 85%. Moreover, in experiment [2], the concentration giving a half-maximal response (EC50) is above 1 µM and the Emax is below 65%.

As to `CC(=O)N1CC2(CCN(CC3CCN(C(=O)O[C@@H]4CCOC4)CC3)CC2)c2cc(C)ccc21` [compound 403], in experiment [1], the EC50 was below 0.1 µM and the Emax lay in the range of 65 to 85%. In addition, in experiment [2], the EC50 was above 1 µM and the Emax is below 65%.

With `CC(=O)N1CC2(CCN(CC3CCN(C(=O)OC(C)C)CC3)CC2)c2cc(C)ccc21` [compound 404], in experiment [1], the EC50 was 0.1 to 1 µM and the Emax was below 65%. In experiment [2], the concentration giving a half-maximal response (EC50) is above 1 µM and the Emax is below 65%.

With `CCCOC(=O)N1C2CCC1CC(N1CCC3(CC1)CN(C(=O)OCCOC)c1ccc(F)cc13)C2` (stereo not shown) [compound 405], in experiment [1], the 50% effective concentration (EC50) lay in the range of 0.1 to 1 µM and the Emax was below 65%. In addition, in experiment [2], the half-maximal effective concentration (EC50) was above 1 µM and the Emax is below 65%.

Take `CCOC(=O)N1CCC(N2CCC3(CC2)CN(C(C)=O)c2ccc(-c4ccc(C(N)=O)cc4)cc23)CC1` [compound 406]: the concentration giving a half-maximal response (EC50) in experiment [1] was 0.1 to 1 µM; in experiment [2], above 1 µM. The Emax in experiment [1] and in experiment [2] was below 65% throughout.

For `C/C=C\c1ccc2c(c1)C1(CCN(C3CCN(C(=O)OCC)CC3)CC1)CN2C(C)=O` [compound 407], the EC50 in experiment [1] is 0.1 to 1 µM; in experiment [2], above 1 µM. Further, the Emax in experiment [1] and in experiment [2] was below 65% each time.

`CC(=O)NC1CC2(CCN(C[C@@H]3C[C@H]4C=C[C@H]3C4)CC2)c2ccccc21` (stereo partly shown) [compound 408]: in experiment [1], the EC50 is below 0.1 µM and the Emax lay in the range of 65 to 85%. In experiment [2], the half-maximal effective concentration (EC50) is below 0.1 µM and the Emax is 65 to 85%.

Turning to `CCOC(=O)N1C2CCC1CC(N1CCC3(CC1)CN(C(=O)OC1CCC1)c1ccc(F)cc13)C2` (stereo not shown) [compound 409], the EC50 in experiment [1] and in experiment [2] was below 0.1 µM in each case. Besides, the Emax in experiment [1] and in experiment [2] was above 85% throughout.

For `CCOC(=O)N1CCC(N2CCC3(CC2)CN(C(=O)c2cccc(F)c2)c2ccc(F)cc23)CC1` [compound 410], in experiment [1], the EC50 was 0.1 to 1 µM and the Emax was below 65%. Moreover, in experiment [2], the 50% effective concentration (EC50) was 0.1 to 1 µM and the Emax is below 65%.

On to `Cc1cc(C(=O)N2CC3(CCN(C4CC5CCC(C4)N5C(=O)O[C@H]4CCOC4)CC3)c3cc(F)ccc32)nn1C` (stereo partly shown) [compound 411], for which the EC50 in experiment [1] is below 0.1 µM; in experiment [2] it was 0.1 to 1 µM. Also, the Emax in experiment [1] and in experiment [2] was below 65% in each case.

Consider `COCCOC(=O)N1CCC(CN2CCC3(CC2)C[C@H](NC(C)=O)c2ccccc23)CC1` [compound 412], for which, in experiment [1], the EC50 lay within 0.1 to 1 µM and the Emax was below 65%. Besides, in experiment [2], the concentration for a half-maximal effect (EC50) was above 1 µM and the Emax is below 65%.

Turning to `CCOC(=O)N1CCC(N2CCC3(CC2)CN(C(C)=O)c2ccc(F)cc23)CC1` [compound 413], the concentration giving a half-maximal response (EC50) in experiment [1] was below 0.1 µM; in experiment [2] it was 0.1 to 1 µM. For the same molecule, the Emax in experiment [1] and in experiment [2] was below 65% throughout.

With `CCOC(=O)N1CCC(CN2CCC3(CCc4ccccc43)CC2)CC1` [compound 414], in experiment [1], the concentration for a half-maximal effect (EC50) is above 1 µM and the Emax was below 65%. In experiment [2], the 50% effective concentration (EC50) was above 1 µM and the Emax is below 65%.

With `Clc1ccc2c(c1)C1(CCN(CC3CCOCC3)CC1)CO2` [compound 415], in experiment [1], the half-maximal effective concentration (EC50) was above 1 µM and the Emax was below 65%. In addition, in experiment [2], the EC50 is above 1 µM and the Emax is below 65%.

Turning to `Fc1ccc2c(c1)C1(CCN(C3CC4CCC3C4)CC1)CN2` (stereo not shown) [compound 416], in experiment [1], the EC50 is above 1 µM and the Emax was below 65%. Besides, in experiment [2], the EC50 was above 1 µM and the Emax is below 65%.

Turning to `CCOC(=O)N1C2CCC1CC(N1CCC3(CC1)CN(C(C)=O)c1ccc(Cl)cc13)C2` (stereo not shown) [compound 417], in experiment [1], the concentration giving a half-maximal response (EC50) was in the range of 0.1 to 1 µM and the Emax was below 65%. Besides, in experiment [2], the half-maximal effective concentration (EC50) is above 1 µM and the Emax was below 65%.

In the case of `CC(=O)N1CC2(CCN(C3CCN(C(=O)O[C@H]4CCOC4)CC3)CC2)c2cc(F)ccc21` [compound 418], in experiment [1], the 50% effective concentration (EC50) was above 1 µM and the Emax is below 65%. In experiment [2], the EC50 is above 1 µM and the Emax is below 65%.

On to `COCCOC(=O)N1CCC(CN2CCC3(CC2)CN(C(C)=O)c2ccc(C)cc23)CC1` [compound 419], for which, in experiment [1], the EC50 was above 1 µM and the Emax is below 65%. Besides, in experiment [2], the EC50 is above 1 µM and the Emax is below 65%.

Regarding `c1ccc2c(c1)NCC21CCN(C2CC3CCC(C3)C2)CC1` (stereo not shown) [compound 420], the EC50 was 0.1 to 1 µM in experiment [1] and above 1 µM in experiment [2]. The Emax in experiment [1] and in experiment [2] was below 65% throughout.

Regarding `CC(=O)NC1CC2(CCN(C[C@@H]3C[C@H]4C=C[C@H]3C4)CC2)c2ccccc21` (stereo partly shown) [compound 421], in experiment [1], the concentration giving a half-maximal response (EC50) was above 1 µM and the “M1 Efficacy” value was “x (efficacy was calculated to be less than 65%)”. In addition, in experiment [2], the EC50 was above 1 µM and the “M4 Efficacy” value is listed as “x (efficacy was calculated to be less than 65%)”.

Consider `COCCOC(=O)N1CC2(CCN(C3CC4CCC(C3)N4C(=O)OC(C)C)CC2)c2cc(F)ccc21` (stereo not shown) [compound 422], for which, in experiment [1], the EC50 is below 0.1 µM and the Emax is below 65%. Further, in experiment [2], the EC50 was above 1 µM and the Emax was below 65%.

In the case of `COC(=O)N1CCC(CN2CCC3(CC2)CN(C(C)=O)c2ccc(C)cc23)CC1` [compound 423], the values for the EC50 in experiment [1] and in experiment [2] were 0.1 to 1 µM and above 1 µM, respectively. Besides, the Emax in experiment [1] and in experiment [2] was below 65% throughout.

For the molecule `CC(=O)N1CC2(CCN(C3CCN(C(=O)O[C@@H]4CCOC4)CC3)CC2)c2cc(F)ccc21` [compound 424], in experiment [1], the half-maximal effective concentration (EC50) is above 1 µM and the Emax is below 65%. For the same molecule, in experiment [2], the concentration for a half-maximal effect (EC50) is above 1 µM and the Emax was below 65%.

Consider `CC(=O)N1CC2(CCN(C3CCCC(C(F)(F)F)C3)CC2)c2cc(F)ccc21` (stereo not shown) [compound 425], for which, in experiment [1], the EC50 was above 1 µM and the Emax was below 65%. For the same molecule, in experiment [2], the EC50 was above 1 µM and the Emax is below 65%.

For the molecule `CCOC(=O)N1CCC(N2CCC3(CC2)CN(C(C)=O)c2ccc(C4=CCCC4)cc23)CC1` [compound 426], the EC50 in experiment [1] and in experiment [2] was above 1 µM in each case. For the same molecule, the Emax in experiment [1] and in experiment [2] was below 65% throughout.

As to `CCOC(=O)N1CCC(N2CCC3(CC2)CN(C(=O)OCC)c2ccc(F)cc23)CC1` [compound 427], in experiment [1], the EC50 lay in the range of 0.1 to 1 µM and the Emax is below 65%. For the same molecule, in experiment [2], the EC50 was above 1 µM and the Emax was below 65%.
